≈ marks a conversion by molar mass, not a printed value. Read-outs that look alike come from different tables or passages of the source.
How the values were obtained:
[1] = test system: Enterococcus faecalis ATCC 29212; assay: MIC range and interpretive result on gram-positive reference strain; format: cell-based; settings: for Interpretive result: MIC range against breakpoints LB + UB; for MIC range: data validated by MERLIN Diagnostika GmbH
Method: (§1) Determining the susceptibility with the microtiter plate 1 depends on the rehydration of antibiotics by the addition of a standardised bacterial suspension. The result is measured after 18-24 hours incubation at 35-37° C. photometrically with MICRONAUT Skan or another suitable photometer and analysed with MICRONAUT Software or visually read and interpreted.
(§2) Test Procedure 1. Gram Preparation: • Gram-positive bacteria appear blue, gram-negative bacteria red. It is recomended that the gram stain is determined according to standard protocol or the recommendations on the manufacturer's kit. 2. Inoculum Production • Prepare a test tube with 5 ml NaCl 0.9% pH 5.5 to 6.5. • Remove several individually located colonies of a pure culture which is 18-24 hours old from the blood agar (without additives). • Homogenise the colonies well in 5 ml NaCl 0.9% until the turbidity corresponds to a McFarland of 0.5. 3. Inoculation in Broth • 3.1 Mueller-Hinton broth or modified ISO-Sensitest broth. • For gram-negative bacteria, 50 μl of the bacterial suspension is pipetted into 11 ml Mueller-Hinton II broth or modified ISO-Sensitest broth and well homogenised. • For gram-positive bacteria, 100 μl of the bacterial suspension is pipetted into 11 ml Mueller-Hinton II broth or modified ISO-Sensitest broth and well homogenised. • 3.2H-Broth • For fastidious bacteria, 200 μl of the bacterial suspension is transferred into 11 ml preheated H-Broth and homogenised. 4. Inoculation (Broth-Microdilution) • Remove microtiter plate from the individual packaging max. 30 minutes before inoculation and dispose of the dessicant. • Label test plate. • Dispense the prepared suspension according to the plate layout into a 2-channel reservoir. • The inoculation of the microtiter plate is carried out manually with a multi-channel pipette, 100 μl per well. 5. Sealing and Incubation • 5.1 Mueller-Hinton II broth or modified ISO-Sensitest broth • After inoculating seal the test plates with an unperforated adhesive film or cover with an unused microtiter plate (max. 5 test plates stacked). • Incubate test plate 18-24 hours at 35-37° C. • 5.2H-Broth • After inoculating the test plates cover with an unused microtiter plate or with a perforated cover film. • Incubate test plate 22 to 24 hours at 35 to 37° C. in the incubator with CO2 gassing. 6. Reading • Remove adhesive film. • Wipe test plate from below. • Reading of test plate with photometer or visually. 7. Analysis • The bacterial growth is determined using a photometric measurement at a wave length of 620 nm or 690 nm—according to the broth used. • The result is analysed, interpreted and checked for its plausibility by means of MICRONAUT Software. The growth control must be overgrown (turbid), otherwise the test must be repeated. With visual readout the results should be recorded on a plate layout plan. The test result can be seen on the screen or on the findings report. 8. Interpretation of the Results
(§3) Breakpoint Interpretation • For antibiotics which are tested in four or fewer consecutive concentrations or in non-consecutive concentrations, interpreting categories are determined, namely susceptible, intermediate and resistant, on the basis of low and upper breakpoint MIC values (See attachment: Tables IIA and IIB, Tables IIIA, IIIB, IIIC and IIID and Table IV). The lower breakpoint (LB) is represented by the MIC value which prevents sufficient and visible bacterial growth, ie the bacterial isolate is susceptible to the antibiotic. […] Using MICRONAUT Software, MIC values can be automatically analysed and interpreted for a given bacterial isolate and antibiotic. […]

[2] = test system: Staphylococcus aureus ATCC 29213; assay: as above; format: cell-based; settings: for Interpretive result: MIC range against breakpoints LB + UB; for MIC range: data validated by MERLIN Diagnostika GmbH
Method: as §1, §2, §3

[3] = test system: Escherichia coli ATCC 25922; assay: MIC range and interpretive result on gram-negative reference strain; format: cell-based; settings: for Interpretive result: MIC range against breakpoints LB + UB; for MIC range: data validated by MERLIN Diagnostika GmbH
Method: as §1, §2, §3

[4] = test system: Pseudomonas aeruginosa ATCC 27853; assay: as above; format: cell-based; settings: for Interpretive result: MIC range against breakpoints LB + UB; for MIC range: data validated by MERLIN Diagnostika GmbH
Method: as §1, §2, §3

[5] = test system: Staphylococcus aureus ATCC 29213; settings: taken from NCCLS, M31-A2, 2002; cited from earlier work
[6] = test system: Enterococcus faecalis ATCC 29212; settings: taken from NCCLS, M31-A2, 2002; cited from earlier work
[7] = test system: Escherichia coli ATCC 25922; settings: taken from NCCLS, M31-A2, 2002; cited from earlier work
[8] = test system: Pseudomonas aeruginosa ATCC 27853; settings: taken from NCCLS, M31-A2, 2002; cited from earlier work
[9] = test system: S.E. Sm24/Rif12/Ssq (vaccine strain); assay: Broth microdilution MIC, resistance marker discrimination, vaccine strain S.E. Sm24/Rif12/Ssq; format: cell-based, Salmonella Enteritidis; settings: chicken, validated at Lohmann Animal Health
Method: as §1
(§4) Test Procedure 1. Gram Preparation: • Gram-positive bacteria appear blue, gram-negative bacteria red. It is recomended that the gram stain is determined according to standard protocol or the recommendations on the manufacturer's kit. 2. Inoculum Production • Prepare a test tube with 5 ml NaCl 0.9% pH 5.5 to 6.5. • Remove several individually located colonies of a pure culture which is 18-24 hours old from the blood agar (without additives). • Homogenise the colonies well in 5 ml NaCl 0.9% until the turbidity corresponds to a McFarland of 0.5. 3. […] Reading • Remove adhesive film. • Wipe test plate from below. • Reading of test plate with photometer or visually. […] Analysis • The bacterial growth is determined using a photometric measurement at a wave length of 620 nm or 690 nm—according to the broth used. • The result is analysed, interpreted and checked for its plausibility by means of MICRONAUT Software. […] With visual readout the results should be recorded on a plate layout plan. […]
(§5) Breakpoint Interpretation • For antibiotics which are tested in four or fewer consecutive concentrations or in non-consecutive concentrations, interpreting categories are determined, namely susceptible, intermediate and resistant, on the basis of low and upper breakpoint MIC values (See attachment: Tables IIA and IIB, Tables IIIA, IIIB, IIIC and IIID and Table IV). […] Using MICRONAUT Software, MIC values can be automatically analysed and interpreted for a given bacterial isolate and antibiotic. […]

[10] = test system: S.E. Leipzig (field strain); assay: Broth microdilution MIC, resistance marker discrimination, field strain S.E. Leipzig; format: cell-based, Salmonella Enteritidis; settings: chicken, validated at Lohmann Animal Health
Method: as §1, §4, §5

[11] = test system: S.Tm. Nal2/Rif9/Rtt (vaccine strain); assay: Broth microdilution MIC, resistance marker discrimination, vaccine strain S.Tm. Nal2/Rif9/Rtt; format: cell-based, Salmonella Typhimurium; settings: chicken, validated at Lohmann Animal Health
Method: as §1
as §4, with “2.” for “2. Inoculum Production • Prepare a test tube with 5 ml NaCl 0.9% pH 5.5 to 6.5. • Remove several individually located colonies of a pure culture which is 18-24 hours old from the blood agar (without additives). • Homogenise the colonies well in 5 ml NaCl 0.9% until the turbidity corresponds to a McFarland of 0.5. 3.”
(§6) Breakpoint Interpretation • For antibiotics which are tested in four or fewer consecutive concentrations or in non-consecutive concentrations, interpreting categories are determined, namely susceptible, intermediate and resistant, on the basis of low and upper breakpoint MIC values (See attachment: Tables IIA and IIB, Tables IIIA, IIIB, IIIC and IIID and Table IV). […]

[12] = test system: S.Tm. Moskau 415 (field strain); assay: Broth microdilution MIC, resistance marker discrimination, field strain S.Tm. Moskau 415; format: cell-based, Salmonella Typhimurium; settings: chicken, validated at Lohmann Animal Health
Method: as §1
as §4, with “2.” for “2. Inoculum Production • Prepare a test tube with 5 ml NaCl 0.9% pH 5.5 to 6.5. • Remove several individually located colonies of a pure culture which is 18-24 hours old from the blood agar (without additives). • Homogenise the colonies well in 5 ml NaCl 0.9% until the turbidity corresponds to a McFarland of 0.5. 3.”
as §6

Row | Compound | Interpretive result [1] | Interpretive result [2] | Interpretive result [3] | Interpretive result [4] | MIC range [5] | MIC range [6] | MIC range [7] | also measured
1 | CCN1CCN(c2cc3c(cc2F)c(=O)c(C(=O)O)cn3C2CC2)CC1 [Enrofloxacin] | S/I | S | S | I/R | 0.03 to 0.12 µg/mL | 0.12 to 1 µg/mL | 0.008 to 0.03 µg/mL | MIC range [8]: 1 to 4 µg/mL
2 | Gentamicin | S/I/R | S | S | S | 0.12 to 1 µg/mL | 4 to 16 µg/mL | 0.25 to 1 µg/mL | MIC range [8]: 0.5 to 2 µg/mL
3 | CCC[C@@H]1C[C@@H](C(=O)N[C@@H]([C@H]2O[C@H](SC)[C@H](O)[C@@H](O)[C@H]2O)[C@@H](C)O)N(C)C1 [Lincomycin] | R | S/I | – | R | – | – | – | MIC range [1]: 8 to 32 µg/mL; MIC range [2]: 0.5 to 2 µg/mL; MIC range [4]: 32 µg/mL (≈ 78.7 µM)
4 | CC[C@H]1OC(=O)[C@H](C)[C@@H](O[C@H]2C[C@@](C)(OC)[C@@H](O)[C@H](C)O2)[C@H](C)[C@@H](O[C@@H]2O[C@H](C)C[C@H](N(C)C)[C@H]2O)[C@](C)(O)C[C@@H](C)C(=O)[C@H](C)[C@@H](O)[C@]1(C)O [Erythromycin] | I | S/I | – | – | 0.12 to 1 µg/mL | 1 to 4 µg/mL | – | MIC range [9]: ≦5 μg/ml; MIC range [10]: ≧20 μg/ml; MIC range [11]: ≦5 μg/ml; MIC range [12]: ≧20 μg/ml
5 | C=C[C@]1(C)C[C@@H](OC(=O)CSCCN(CC)CC)[C@]2(C)[C@H](C)CC[C@]3(CCC(=O)[C@H]32)[C@@H](C)[C@@H]1O [Tiamulin] | – | S | – | – | 0.5 to 2.0 µg/mL | – | – | –
6 | CC1(C)S[C@@H]2[C@H](NC(=O)Cc3ccccc3)C(=O)N2[C@H]1C(=O)O [Penicillin G] | S | R | – | – | 0.25 to 2 µg/mL | 1 to 4 µg/mL | – | –
7 | Colistin | – | R | S | S/I | – | – | – | MIC range [2]: 64 µg/mL; MIC range [3]: ≦0.5 μg/ml; MIC range [4]: 0.5 to 2 µg/mL
8 | [H]/N=C(/N)N[C@H]1[C@H](O)[C@@H](O)[C@H](O[C@@H]2O[C@@H](C)[C@](O)(C=O)[C@H]2O[C@@H]2O[C@@H](CO)[C@H](O)[C@@H](O)[C@@H]2NC)[C@@H](N/C(N)=N\[H])[C@@H]1O [Streptomycin] | – | – | – | – | – | – | – | MIC range [9]: >200 µg/mL; MIC range [10]: <200 µg/mL
9 | CN(C)[C@@H]1C(O)=C(C(N)=O)C(=O)[C@@]2(O)C(O)=C3C(=O)c4c(O)cccc4[C@@](C)(O)[C@H]3C[C@@H]12 [Tetracycline] | I/R | S | S | R | – | – | – | –
10 | Cc1onc(-c2ccccc2)c1C(=O)N[C@@H]1C(=O)N2[C@@H]1SC(C)(C)[C@@H]2C(=O)O [Oxacillin] | R | S | – | – | 0.12 to 0.5 µg/mL | 8 to 32 µg/mL | – | –
11 | Neomycin | R | S | S | – | – | – | – | MIC range [1]: 16 to 64 µg/mL; MIC range [2]: 0.5 to 2 µg/mL; MIC range [3]: 0.5 to 2 µg/mL
12 | CN[C@@H]1[C@H](O)[C@H](NC)[C@H]2O[C@@]3(O)C(=O)C[C@@H](C)O[C@H]3O[C@@H]2[C@H]1O [Spectinomycin] | R | R | S/R | – | 64 to 256 µg/mL | 64 to 256 µg/mL | 8 to 64 µg/mL | –
13 | CO/N=C(\C(=O)N[C@@H]1C(=O)N2C(C(=O)O)=C(CSC(=O)c3ccco3)CS[C@H]12)c1csc(N)n1 [Ceftiofur] | – | S | S | R | 0.25 to 1 µg/mL | – | 0.25 to 1 µg/mL | MIC range [8]: 16 to 64 µg/mL
14 | CC1(C)S[C@@H]2[C@H](NC(=O)[C@H](N)c3ccccc3)C(=O)N2[C@H]1C(=O)O [Ampicillin] | S | – | S | – | – | 0.5 to 2 µg/mL | 2 to 8 µg/mL | –
15 | CO[C@H]1/C=C/O[C@@]2(C)Oc3c(C)c(O)c4c(O)c(c(/C=N/N5CCN(C)CC5)c(O)c4c3C2=O)NC(=O)/C(C)=C\C=C\[C@H](C)[C@H](O)[C@@H](C)[C@@H](O)[C@@H](C)[C@H](OC(C)=O)[C@@H]1C [Rifampicin] | – | – | – | – | – | – | – | MIC range [9]: >50 µg/mL; MIC range [10]: <50 µg/mL; MIC range [11]: >50 µg/mL; MIC range [12]: <50 µg/mL
